Laboratory results: ChEMBL document CHEMBL4334498, “Structures, NMR Spectroscopic Features, and Cytotoxic Properties of Oligomeric Hellinoyl (m-GO-m-GOG)-Type Ellagitannins from the Galls of Tamarix aphylla” (J Nat Prod, 2019)

Key:
[1] = test system: HSC-4; experiment: Cytotoxicity against human HSC4 cells assessed as reduction in cell viability incubated for 48 hrs by MTT assay; assay type: functional; conditions: HSC-4, 48 h
[2] = test system: HSC-2; experiment: Cytotoxicity against human HSC2 cells assessed as reduction in cell viability incubated for 48 hrs by MTT assay; assay type: functional; conditions: HSC-2, 48 h
[3] = Cytotoxicity against human Pulp Cell cells assessed as reduction in cell viability incubated for 48 hrs by MTT assay; assay type: cell-based
[4] = test system: Ca9-22; experiment: Cytotoxicity against human Ca9-22 cells assessed as reduction in cell viability incubated for 48 hrs by MTT assay; assay type: functional; conditions: Ca9-22, 48 h
[5] = Cytotoxicity against human HPLF cells assessed as reduction in cell viability incubated for 48 hrs by MTT assay; assay type: cell-based
[6] = Cytotoxicity against human HGF cells assessed as reduction in cell viability incubated for 48 hrs by MTT assay; assay type: cell-based

Compound | CC50 [1] | CC50 [2] | CC50 at 48 h [3] | CC50 [4] | CC50 at 48 h [5] | CC50 at 48 h [6]
O=C(O[C@@H]1O[C@@H]2COC(=O)c3cc(O)c(O)c(O)c3-c3c(cc(O)c(O)c3O)C(=O)O[C@H]2[C@H](OC(=O)c2cc(O)c(O)c(O)c2)[C@H]1OC(=O)c1cc(O)c(O)c(O)c1Oc1cc2c(c(O)c1O)Oc1cc(cc(O)c1O)C(=O)O[C@@H]1O[C@@H]3COC(=O)c4cc(O)c(O)c(O)c4-c4c(cc(O)c(O)c4O)C(=O)O[C@H]3[C@H](OC(=O)c3cc(O)c(O)c(O)c3)[C@H]1OC2=O)c1cc(O)c(O)c(Oc2c(C(=O)O[C@H]3C(O)O[C@@H]4COC(=O)c5cc(O)c(O)c(O)c5-c5c(cc(O)c(O)c5O)C(=O)O[C@H]4[C@@H]3OC(=O)c3cc(O)c(O)c(O)c3)cc(O)c(O)c2O)c1 (stereo not given in full) | 26 µM | 23 µM | > 75 µM | 27 µM | > 75 µM | > 75 µM
O=c1[nH]cc(F)c(=O)[nH]1 [FLUOROURACIL] | 25 µM | 47 µM | > 1000 µM | 262 µM | > 1000 µM | > 1000 µM
O=C(O)c1cc(O)c(O)c(Oc2c(C(=O)O)cc(Oc3c(C(=O)O)cc(O)c(O)c3O)c(O)c2O)c1 | 153 µM | 246 µM | > 395 µM | 345 µM | > 395 µM | > 395 µM
O=C(OC[C@H]1O[C@H]2OC(=O)c3cc(O)c(O)c(c3)Oc3c(cc(Oc4c(C(=O)O[C@H]5[C@H](OC(=O)c6cc(O)c(O)c(O)c6)O[C@@H]6COC(=O)c7cc(O)c(O)c(O)c7-c7c(cc(O)c(O)c7O)C(=O)O[C@H]6[C@@H]5OC(=O)c5cc(O)c(O)c(O)c5)cc(O)c(O)c4O)c(O)c3O)C(=O)O[C@@H]2[C@@H](OC(=O)c2cc(O)c(O)c(O)c2)[C@@H]1O)c1cc(O)c(O)c(O)c1 | 21 µM | 21 µM | > 116 µM | 25 µM | > 116 µM | > 116 µM
O=C(O[C@@H]1O[C@@H]2COC(=O)c3cc(O)c(O)c(O)c3-c3c(cc(O)c(O)c3O)C(=O)O[C@H]2[C@H](OC(=O)c2cc(O)c(O)c(O)c2)[C@H]1OC(=O)c1cc(O)c(O)c(O)c1Oc1cc(C(=O)O[C@@H]2O[C@@H]3COC(=O)c4cc(O)c(O)c(O)c4-c4c(cc(O)c(O)c4O)C(=O)O[C@H]3[C@H](OC(=O)c3cc(O)c(O)c(O)c3)[C@H]2OC(=O)c2cc(O)c(O)c(O)c2Oc2cc3c(c(O)c2O)Oc2cc(cc(O)c2O)C(=O)O[C@@H]2O[C@@H]4COC(=O)c5cc(O)c(O)c(O)c5-c5c(cc(O)c(O)c5O)C(=O)O[C@H]4[C@H](OC(=O)c4cc(O)c(O)c(O)c4)[C@H]2OC3=O)cc(O)c1O)c1cc(O)c(O)c(Oc2c(C(=O)O[C@H]3C(O)O[C@@H]4COC(=O)c5cc(O)c(O)c(O)c5-c5c(cc(O)c(O)c5O)C(=O)O[C@H]4[C@@H]3OC(=O)c3cc(O)c(O)c(O)c3)cc(O)c(O)c2O)c1 (stereo not given in full) | 24 µM | 25 µM | > 56 µM | 35 µM | > 56 µM | > 56 µM
COc1cccc2c1C(=O)c1c(O)c3c(c(O)c1C2=O)C[C@@](O)(C(=O)CO)C[C@@H]3O[C@H]1C[C@H](N)[C@H](O)[C@H](C)O1 [DOXORUBICIN] | 0.1 µM | – | > 10 µM | 0.7 µM | > 10 µM | > 10 µM
